Data taken from patent US20260028332A1, “POLYMORPHIC FORM OF GLP-1R AGONIST, PREPARATION METHOD THEREFOR AND USE THEREOF” (MINDRANK THERAPEUTICS (SUZHOU) NEW DRUG RESEARCH AND …, priority 2022, published 2026).
Values after ≈ are worked out from the molar mass of the structure shown.

What was measured:
Type in all cases: physicochemical
[1] = Hygroscopic behavior test by dynamic vapor sorption (DVS); conditions: for solid form change after DVS / hygroscopicity / Sample weight change at 80% RH (%): 25° C.; for solid form change after DVS: 0-90% RH; for hygroscopicity: 0-90% RH adsorption curve, at 80% RH; for Whether the crystal form is changed: after DVS test at 25° C.
Excerpt: The experimental method for characterizing an acid salt or a base salt of compound III by dynamic vapor sorption (DVS) was as follows: A small amount of a powder of a polymorph of compound III was taken and placed into a precise sample tray that matches the instrument. After the sample was loaded, the sample tray was sent into the instrument for analysis. In the present disclosure, the instrument model used in the dynamic vapor sorption analysis was Intrinsic PLUS; the experimental parameter was set as follows: a constant temperature of 25° C. was set; the mass percent change rate per unit time (dm/dt)=0.02%/min was used as a criterion for determining that a balance is achieved; the program humidity change cycle was set as follows: the initial relative humidity was 0%, and the endpoint relative humidity was 90%.
The DVS plot of the amorphous solid of the compound is shown in FIG. 67, and the DVS plot of crystal form D of the compound is shown in FIG. 68 The results are shown in the table below
The inventors assessed the stability risk of samples under varying humidity at 25° C. using the dynamic vapor sorption method and conducted the DVS test on the representative crystal form 2A of compound II to evaluate the hygroscopicity of the crystal form of the compound.

[2] = Solid state stability study of polymorph (purity by HPLC and crystal form change after 7 days storage); conditions: for Purity (%) / Initial purity (%): HPLC; for Initial purity (%): before storage
[3] = as above; conditions: for purity change, long-term storage condition: 25° C./60% RH; for purity change, long-term storage condition / purity change, accelerated condition / purity change, high-temperature condition: 7 days; for purity change, high-temperature condition: 60° C., RH<30%; for crystal form change after storage: 7 days in long-term storage, accelerated and high-temperature conditions; for overall solid state stability: 7 days storage study, conclusion
Procedure: Crystal form 2A of compound II was preserved in long-term storage (25° C./60% RH), accelerated (40° C./75% RH), and high-temperature (60° C., RH<30%) conditions for 7 days, and tested for purity and crystal form change by HPLC, so as to examine the stability of the solids.

[4] = Equilibrium solubility study of polymorph in biological media (supernatant concentration; residual solid by XRPD); conditions: for Whether the crystal form is changed: residual solid by XRPD after 24 h at 37±2° C.; for solubility thermodynamic at 24 h: 37 °C, thermodynamic from solid, suspension ~10 mg/mL, 37±2° C.
[5] = as above; conditions: for crystal form change of the solid in FaSSGF: ~10 mg/mL suspension; for crystal form change of the solid in FaSSGF / crystal form change of the solid in other media: solid tested by XRPD; for Whether the crystal form is changed: residual solid by XRPD after 24 h at 37±2° C.; for stability in biological media compared with the amorphous solid: H2O; for crystal form change of the solid in other media: media other than FaSSGF (H2O, FaSSIF, FeSSIF)
Procedure: (§1) In the tests, the solids were suspended in corresponding buffers to formulate suspensions (˜10 mg/mL), and the suspensions were mixed at 37±2° C. After 24 h, samples of the suspensions were taken. The supernatant was filtered, and the concentration was determined. The solid was tested by XRPD.
as §1, with “Crystal form 2A of compound II was tested for its equilibrium solubility in water (H2O), fasted state simulated gastric fluid (FaSSGF), fasted state simulated intestinal fluid (FaSSIF), and fed state simulated intestinal fluid (FeSSIF). In” for “In”

[6] = 25° C./60% RH, 7 days (long-term storage), compound II
[7] = 60° C., 7 days (high-temperature, RH<30%), compound II
[8] = FaSSGF, FaSSIF, FeSSIF, 37±2° C., 24 h
[9] = 25° C./60% RH, 7 days (long-term storage), compound I
[10] = 40° C./75% RH, 7 days (accelerated), compound I
[11] = 60° C., 7 days (high-temperature, RH<30%), compound I

SMILES	solid form change after DVS [1]	hygroscopicity [1]	purity change, long-term storage condition ([3]; HPLC)	purity change, accelerated condition ([3]; 40° C./75% RH, HPLC)	purity change, high-temperature condition ([3]; HPLC)	crystal form change after storage [3]	overall solid state stability [3]	crystal form change of the solid in FaSSGF ([5]; FaSSGF, 37±2° C., 24 h)	stability in biological media compared with the amorphous solid [5, 8]	crystal form change of the solid in other media ([5]; 37±2° C., 24 h)	hygroscopicity ([1]; DVS, compound I)	Sample weight change at 80% RH (%) ([1]; DVS, compound I)	Whether the crystal form is changed ([1]; compound I)	Purity (%) [2, 9] [%]	Crystal form change [2, 9]	Purity (%) [2, 10] [%]	Crystal form change [2, 10]	Purity (%) [2, 11] [%]	Crystal form change [2, 11]	Initial purity (%) ([2]; compound I)	other results
N#Cc1ccc(OCc2cccc(OC3CCN(Cc4nc5ccc(C(=O)O)cc5n4C[C@@H]4CCO4)CC3)n2)c(F)c1 [crystal form 2A of compound II, (S)-2-((4-((6-((4-cyano-2-fluorophenoxy)methyl)pyridin-2-yl)oxy)piperidin-1-yl)methyl)-1-(oxetan-2-ylmethyl)-1H-benzo[d]imidazole-6-carboxylic acid]	no solid form changes were observed	slightly hygroscopic	no significant purity changes	no significant purity changes	no significant purity changes	no significant purity changes or significant crystal form changes	good stability	converted into a hydrochloride salt	significantly superior	no crystal form changes	–	–	–	–	–	–	–	–	–	–	hygroscopicity ([1]; DVS, compound II): Slightly hygroscopic; Sample weight change at 80% RH (%) ([1]; DVS, compound II): 0.71%; Whether the crystal form is changed ([1]; compound II): No; Purity (%) [2, 6]: 97.65%; Crystal form change [2, 6]: No; Purity (%) [2, 7]: 97.63%; Crystal form change [2, 7]: No; Initial purity (%) ([2]; compound II): 97.71%; Purity (%) ([3]; 40° C./75% RH, 7 days (accelerated), HPLC, compound II): 97.38%; Crystal form change ([3]; 40° C./75% RH, 7 days (accelerated), compound II): No; Whether the crystal form is changed ([4]; H2O, polymorph of compound II): No; solubility thermodynamic at 24 h ([4]; fasted state simulated intestinal fluid (FaSSIF), FaSSIF, polymorph of compound II): 40 µg/mL (≈ 70 µM); solubility thermodynamic at 24 h ([4]; fed state simulated intestinal fluid (FeSSIF), FeSSIF, polymorph of compound II): 190 µg/mL (≈ 332 µM); solubility thermodynamic at 24 h ([4]; water, H2O, polymorph of compound II): 90 µg/mL (≈ 157 µM); Whether the crystal form is changed ([5]; FaSSIF, polymorph of compound II): No; Whether the crystal form is changed ([5]; FeSSIF, polymorph of compound II): No; solubility thermodynamic at 24 h ([5]; fasted state simulated gastric fluid (FaSSGF), 37 °C, fassgf or other biorelevant, thermodynamic from solid, FaSSGF, suspension ~10 mg/mL, 37±2° C., 24 h, polymorph of compound II): 180 µg/mL (≈ 315 µM)
O=C(O)c1ccc2nc(CN3CCC(Oc4cccc(COc5ccc(Cl)cc5F)n4)CC3)n(C[C@@H]3CCO3)c2c1 [crystal form D of compound I, (S)-2-((4-((6-((4-chloro-2-fluorophenoxy)methyl)pyridin-2-yl)oxy)piperidin-I-yl)methyl)-1-(oxetan-2-ylmethyl)-1H-benzo[d]imidazole-6-carboxylic acid]	no solid form changes were observed	slightly hygroscopic	no significant purity changes	slightly reduced purities	slightly reduced purities	no significant crystal form changes	significantly superior	converted into a hydrochloride salt	significantly superior	no crystal form change was observed	Slightly hygroscopic	1.08	No	99.10	No	98.98	No	98.61	No	99.15	Whether the crystal form is changed ([4]; FaSSIF, polymorph of compound I): No; Whether the crystal form is changed ([4]; FeSSIF, polymorph of compound I): No; Whether the crystal form is changed ([4]; H2O, polymorph of compound I): No; solubility in the FaSSIF system ([5]; FaSSIF, 37±2° C., 24 h, compared with amorphous solid): significantly improved solubility
O=C(O)c1ccc2nc(CN3CCC(Oc4cccc(COc5ccc(Cl)cc5F)n4)CC3)n(C[C@@H]3CCO3)c2c1 [amorphous solid of compound I, (S)-2-((4-((6-((4-chloro-2-fluorophenoxy)methyl)pyridin-2-yl)oxy)piperidin-1-yl)methyl)-1-(oxetan-2-ylmethyl)-1/-benzo[d]imidazole-6-carboxylic acid]	no solid form changes were observed	slightly hygroscopic	no significant purity changes	significant degradation	significant degradation	–	–	–	–	–	Slightly hygroscopic	0.90	No	98.94	No	95.86	No	89.15	No	98.98	Whether the crystal form is changed ([4]; H2O, polymorph of compound I): No
